Experimental data taken from PMC11719397, “Monophthalates of betulinic acid and related pentacyclic triterpenes inhibit efficiently the SOS-mediated nucleotide exchange and impact PI3K/AKT signaling in oncogenic K-RAS4B proteins” (RSC Advances, 2025).
Values after ≈ are worked out from the molar mass of the structure shown.

Experiments:
K-RAS4B wild-type = K-RAS4B wild-type (Homo sapiens, UniProt P01116); assay: Nucleotide exchange assay (SOS1-mediated GDP/GTP exchange, GDP-Glo), K-RAS4B wild-type; assay type: biochemical; conditions: K-RAS4B GDP/GTP exchange; eight data points, at least three determinations; (*) single determination
K-RAS4B wild-type, sequence (P01116 1-188 isoform P01116-2): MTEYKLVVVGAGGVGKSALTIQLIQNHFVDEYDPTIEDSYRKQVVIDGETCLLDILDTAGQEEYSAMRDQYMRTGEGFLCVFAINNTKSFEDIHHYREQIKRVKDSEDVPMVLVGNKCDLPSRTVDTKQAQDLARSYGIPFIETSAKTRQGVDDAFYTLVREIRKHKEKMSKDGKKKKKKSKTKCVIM

K-RAS4B G12V = K-RAS4B G12V (Homo sapiens, UniProt P01116, G12V); assay: Nucleotide exchange assay (SOS1-mediated GDP/GTP exchange, GDP-Glo), K-RAS4B G12V; assay type: biochemical; conditions: eight data points, at least three determinations, (*) single determination
K-RAS4B G12V, sequence (P01116 1-188 isoform P01116-2 G12V): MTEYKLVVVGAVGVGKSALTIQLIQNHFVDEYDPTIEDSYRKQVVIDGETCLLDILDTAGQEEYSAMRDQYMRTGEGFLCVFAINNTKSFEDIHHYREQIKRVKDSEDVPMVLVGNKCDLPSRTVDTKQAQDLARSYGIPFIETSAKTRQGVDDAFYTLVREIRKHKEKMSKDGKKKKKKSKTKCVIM

K-RAS4B^wt = molecular target: T1, K-RAS4B^wt (Homo sapiens, UniProt P01116); assay: NanoBRET target engagement assay, K-RAS4B^wt (displacement of BI2852 tracer from SI/SII site); assay type: cell-based; conditions: live cells; displacement of BI2852 from the K-Ras4B SI/II binding-site; read-out: K-RAS4B^wt NanoBRET TE KD
T1 construct: a fusion protein of LgBiT and full-length RAS; a fusion protein of SmBiT(q) and full-length RAS in cells; expressed in transfected cells; host or cells: HEK239T (so in the source)
T1 sequence (P01116 1-188 isoform P01116-2): as the sequence (P01116 1-188 isoform P01116-2) above
T1 sequence (P01116 1-188 isoform P01116-2): as above
Source text: (§1) To obtain further information on the mode of action, selected GDP/GTP exchange inhibitors were studied in additional assays (Table 3). A target engagement assay, which is based on bioluminescence resonance energy transfer (BRET), was used to measure target engagement at protein complexes in live cells (Fig. 5a). The BRET effect results from an energy transfer between the target luciferase fusion protein and a cell-permeable fluorescent tracer in intact cells.
(§2) Fig. 5 Schematic illustrations of the RAS cellular target engagement and RAS:SOS protein–protein interaction assay. (a) NanoBRET target engagement (TE) assay: when the fusion proteins LgBiT-RAS and SmBiT(q)-RAS interact in live-cells, they form an active luciferase as a BRET donor. The BRET receptor is a fluorescent NanoBRET® tracer that binds specifically to K-RAS. K-RAS binders displace the tracer and reduce the BRET signal in a dose-dependent manner.
(§3) The NanoBRET® TE Intracellular RAS Assay uses NanoBiT® Technology, a structural complementation system comprised of a large luciferase subunit (LgBiT) and a small complementary peptide (SmBiT(q)). Specifically, a fusion protein of LgBiT and full-length RAS is co-expressed with a fusion protein of SmBiT(q) and full-length RAS in cells. When the RAS proteins interact and form multimers, the LgBiT and SmBiT(q) subunits come together to form an active luciferase enzyme that serves as the BRET donor. The energy acceptor is a cell-permeable fluorescent NanoBRET® tracer that binds specifically to RAS. […] After mixing the plate for 1 min and incubation at room temperature for 15 min 1 μL of NanoBRET TE RAS Tracer 01 (final concentration 1 μM) was added followed by another mixing step. After 2 h incubation (37 °C, 5% CO2) and 15 min at room temperature 5 μL of NanoBRET™ Nano-Glo® substrate was added followed by a mixing step.

[1] = molecular target: (GTP)K-RAS4B^wt:SOS1 complex (Homo sapiens, UniProt P01116+Q07889); assay: HTRF K-RAS^wt:SOS protein-protein interaction assay
(GTP)K-RAS4B^wt:SOS1 complex, sequence (P01116 1-188 isoform P01116-2): as above
(GTP)K-RAS4B^wt:SOS1 complex, sequence (Q07889 564-1049 limits assumed): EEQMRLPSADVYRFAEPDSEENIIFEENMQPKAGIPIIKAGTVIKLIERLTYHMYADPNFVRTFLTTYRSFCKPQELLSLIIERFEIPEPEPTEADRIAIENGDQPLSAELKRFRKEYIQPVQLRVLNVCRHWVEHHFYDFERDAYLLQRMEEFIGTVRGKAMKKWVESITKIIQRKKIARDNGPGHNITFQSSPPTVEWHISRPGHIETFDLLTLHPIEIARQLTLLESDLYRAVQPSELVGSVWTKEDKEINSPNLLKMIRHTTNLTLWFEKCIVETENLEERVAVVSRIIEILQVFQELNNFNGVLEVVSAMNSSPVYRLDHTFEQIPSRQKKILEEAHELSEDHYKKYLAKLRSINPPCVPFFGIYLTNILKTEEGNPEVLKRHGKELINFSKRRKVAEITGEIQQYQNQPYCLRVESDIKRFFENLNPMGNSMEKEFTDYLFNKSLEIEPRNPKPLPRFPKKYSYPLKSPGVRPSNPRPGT
Description: The interaction of (GTP)K-RAS4B^wt and SOS was measured with a HTRF assay using an SOS-specific antibody labeled with terbium cryptate as HTRF (homogeneous time-resolved fluorescence) donor and a K-RAS4B^wt specific antibody labeled with an HTRF acceptor (XL665).[52]
To test the compounds effect on the interaction of K-RAS and SOS1 proteins a commercial assay from Revvity (product code 64[sequence]) was used. The K-RAS WT/SOS1 PPI assay includes tagged human recombinant partners (K-RAS WT and SOS1) and labelled anti-tag reagents for HTRF detection. Without an inhibitor, K-RAS WT loaded with GTP binds to SOS1, and the binding of each detection reagent to its tagged target generates an HTRF signal. In the presence of K-RAS WT/SOS1 inhibitors or GTP competitors, the HTRF signal decreases.
After an incubation step for 10 min at room temperature 3 μL Tag1-KRAS protein was added followed by 7.5 μL detection mix containing anti-Tag2 antibody labeled with Terbium cryptate and anti-Tag1 antibody labeled with XL665. […] IC50 values were determined from the sigmoidal dose response curves with the Scigilian Analyze software (Scigilian, Monteral, Canada).

K-RAS4B^G12D [2] = molecular target: T2, K-RAS4B^G12D (Homo sapiens, UniProt P01116, G12D); assay: cell-based; design: a fusion protein of LgBiT and full-length RAS; a fusion protein of SmBiT(q) and full-length RAS in cells; expressed in transfected cells; host or cells: HEK239T (so in the source); conditions: live cells; displacement of BI2852 from the K-Ras4B SI/II binding-site; read-out: K-RAS4B^G12D NanoBRET TE KD
Source text: as §1, §2, §3
Target sequence in this assay (P01116 1-188 isoform P01116-2 G12D): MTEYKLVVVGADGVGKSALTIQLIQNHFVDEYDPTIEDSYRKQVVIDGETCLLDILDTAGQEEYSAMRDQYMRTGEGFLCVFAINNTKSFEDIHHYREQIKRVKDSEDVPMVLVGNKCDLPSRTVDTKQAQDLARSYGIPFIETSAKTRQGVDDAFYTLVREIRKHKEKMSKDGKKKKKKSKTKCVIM
Target sequence in this assay (P01116 1-188 isoform P01116-2 G12D): as above

K-RAS4B^G12D [3] = molecular target: T2, K-RAS4B^G12D; assay: biochemical; conditions: K-RAS4B GDP/GTP exchange; eight data points, at least three determinations
Target sequence in this assay (P01116 1-188 isoform P01116-2 G12D): as above

[4] = system: AKT phosphorylation in SNU-1 cells (K-RAS4B^G12D); assay: HTRF AKT phosphorylation assay in SNU-1 cells; assay type: cell-based; conditions: Homo sapiens, SNU1, read-out: SNU-1 pAKT inhibition IC50
Description: (§4) For selected betulinic acid derivatives quantitative ERK and AKT phosphorylation was measured in SNU-1 (K-RAS4B^G12D) and A375 cells (K-RAS4B^wt) to determine whether pentacyclic triterpenes act via the RAS-RAF-MEK-ERK or the RAS-PI3K-PDK1-AKT downstream cascade (Table 2). The betulinic acid derivatives tested, had no activity on the ERK pathway, but inhibited AKT phosphorylation with micromolar IC50 values in agreement with literature reports.[50,51] […] No activity was detected in A375 cells carrying a BRAF but no K-RAS mutation.
(§5) SNU-1 cells harbouring the K-RASG12D mutation (primary carcinoma of the stomach), were grown in RPMI medium with 10% FBS (fetal bovine serum) and 1% L-Gln. Cells were plated in white small volume cell culture 384 well microplates (Greiner BioOne GmbH) at a density of 50.000 cells per well/6 μL in RPMI medium with 1% L-glut (serum-free medium). The plated cells were placed in a high humidity incubator (37 °C, 5% CO2 and 90% humidity) to avoid evaporation of the small amount of medium for 3 hours before the compounds were added. With the Echo520 liquid handler the cells were treated with a 3-fold 8-point serial dilution of the compounds, with a top final concentration of 330 μM and a final DMSO concentration of 1%. After compound transfer, cells were incubated for 1 hour in the high humidity incubator before the cells were treated with 3 μL of 9 nM EGF diluted in serum-free medium (final EGF concentration in the well 3 nM) for 15 minutes. The lysis buffer from the Phospho-ERK 1/2 (Thr202/Tyr204)- and the Total ERK1/2 LANCE Ultra TR-FRET Cellular Detection Kit (PerkinElmer Inc.) was prepared to a 4-fold concentration in water. Then 3 μL of the lysis buffer were added to each well and the plates were shaken at 300 rpm for 30 minutes at room temperature. During this incubation the antibody detection mix was prepared according to the manufacturer's protocol. In the final step 3 μL of antibody detection mix were added to each well. The plates were sealed with an aluminium sticky foil and incubated over night at room temperature for 20 hours. The detection was performed with the EnVision2104 Multilabel Reader.

[5] = system: ERK phosphorylation in SNU-1 cells (K-RAS4B^G12D); assay: HTRF ERK phosphorylation assay in SNU-1 cells; assay type: cell-based; conditions: Homo sapiens, SNU1, read-out: SNU-1 pERK inhibition IC50
Description: as §4, §5

[6] = system: ERK phosphorylation in A375 cells (K-RAS4B^wt); assay: HTRF ERK phosphorylation assay in A375 cells; assay type: cell-based; conditions: Homo sapiens, A-375; A375 cells (K-RAS4B^wt, BRAF mutation); two determinations; read-out: A375 pERK inhibition IC50
Description: as §4, §5

[7] = system: AKT phosphorylation in A375 cells (K-RAS4B^wt); assay: HTRF AKT phosphorylation assay in A375 cells; assay type: cell-based; conditions: Homo sapiens, A-375; A375 cells (K-RAS4B^wt, BRAF mutation); two determinations; read-out: A375 pAKT inhibition IC50
Description: as §4, §5

[8] = system: a series of cancer cell lines; design: method as in PMID 25909174; conditions: read-out: cytotoxic IC50 against a series of cancer cell lines; cited from earlier work

Kd (K-RAS4B^wt) [µM] | Kd [1] [µM] | Kd (K-RAS4B^G12D [2]) [µM] | SMILES | IC50 (K-RAS4B wild-type) [µM] | IC50 (K-RAS4B G12V) [µM] | IC50 (K-RAS4B^G12D [3]) [µM] | solubility (Solubility) [µM] | IC50 [4] [µM] | IC50 [5] [µM] | IC50 [6] [µM] | IC50 [7] [µM] | IC50 [8] [µM]
39 | > 50 | > 50 | COc1cc(C(=O)O)c(C(=O)OC2CCC3(C)C(CCC4(C)C3CC=C3C5CC(C)(C)CCC5(C(=O)O)CCC34C)C2(C)C)cc1OC (centres unmarked) [Compound 47] | 2.71 ± 1.3 | 2.9 ± 0.51 | 1.61 ± 0.85 | 302 (≈ 201 µg/mL) |  |  |  |  | 
 | > 50 | 16.6 | C[C@H]1[C@H](C)CC[C@]2(C(=O)O)CC[C@]3(C)C(=CC[C@@H]4[C@@]5(C)CC[C@H](OC(=O)c6cc(F)c(F)cc6C(=O)O)C(C)(C)[C@@H]5CC[C@]43C)[C@H]12 [Compound 37] | 3.94 ± 1.02 | 2.15 ± 0.31 | 2.53 ± 0.63 | 220 (≈ 141 µg/mL) |  |  |  |  | 
40.8 | > 100 | 29.1 | C=C(C)[C@@H]1CC[C@]2(COC(=O)CCC(=O)O)CC[C@]3(C)[C@H](CC[C@@H]4[C@@]5(C)CC[C@H](OC(=O)CCC(=O)O)C(C)(C)[C@@H]5CC[C@]43C)[C@@H]12 [Compound 32] | 1.01 ± 0.31 | 1.37 ± 0.28 | 0.71 ± 0.18 |  |  |  |  |  | 
 |  |  | C=C(C)[C@@H]1CC[C@]2(C(=O)O)CC[C@]3(C)[C@H](CC[C@@H]4[C@@]5(C)CC[C@H](OC(=O)c6c(F)ccc(F)c6C(=O)O)C(C)(C)[C@@H]5CC[C@]43C)[C@@H]12 [Compound 24] | 15.7 ± 4.3 | 15.4 ± 2.9 | 8.63 ± 3.72 | 378 (≈ 242 µg/mL) | 13 | 134 | > 1000 | > 1000 | 
 |  |  | C=C(C)[C@@H]1CC[C@]2(C(=O)O)CC[C@]3(C)[C@H](CC[C@@H]4[C@@]5(C)CC[C@H](OC(=O)c6nccnc6C(=O)O)C(C)(C)[C@@H]5CC[C@]43C)[C@@H]12 [Compound 23] | 23.3 ± 2.9 | 9.61 ± 4.82 | 11.8 ± 1 | 434 (≈ 263 µg/mL) | 61.7 | > 1000 | > 1000 | > 1000 | 
 |  |  | C=C(C)[C@@H]1CC[C@]2(C(=O)O)CC[C@]3(C)[C@H](CC[C@@H]4[C@@]5(C)CC[C@H](OC(=O)c6ccccc6C(=O)O)C(C)(C)[C@@H]5CC[C@]43C)[C@@H]12 [Compound 19] | 15.3 ± 3.8 | 16.6 ± 5.2 | 10.4 ± 4.7 | 191 (≈ 116 µg/mL) | 19 | > 300 | > 1000 | > 1000 | ≤ 10
